Values of other authors as cited in patent US7781400B2, “Pharmaceutical compositions comprising dextran with a molecular weight of 1.0-100 KDA and processes for their preparation” (BOWS Pharmaceuticals AG, priority 2006, dated 2010).

Settings: in vivo

For polyglycolide, the “adverse tissue response rates” value is listed as “up to 47%”.
